Among the data in BindingDB's records for doi:10.1021/ja00082a004 (Nci-Fcrdc, 1994) are Ki values, retold here.

Molecules are shown by their SMILES.

The term Ki denotes a dissociation constant, usually derived from enzyme kinetics or from competition with a known ligand. Read a high Ki as a looser hold on the target.

This assay deals with T1, Dimer of Gag-Pol polyprotein [489-587] (Human immunodeficiency virus 1, UniProt P12497).
T1 construct: 489-587
As to the kind of experiment: Protease Inhibition Assay. Particulars: pH 4.7; 30 °C. How it is done:
HIV-1 protease activity was measured by a continuous fluorometric assay using the internally quenched fluorogenic substrate DABCYL-GABA-Ser-Gln-Tyr-Pro-Ile-Val-Gln-EDANS (BACHEM; M-1865) and a SPEX FluoroMax spectrofluorometer (excitation 340 nm, emission 490 nm). The apparent Ki was estimated by nonlinear regression (GraFit, Erithacus Software) to the equation for tight-binding inhibitor.
`CC(C)[C@H](NC(=O)N(C)Cc1ccccn1)C(=O)N[C@@H](Cc1ccccc1)C[C@@H](O)[C@H](Cc1ccccc1)NC(=O)[C@@H](NC(=O)N(C)Cc1ccccn1)C(C)C` [(2S)-N-[(2S,3R,5S)-3-hydroxy-5-[(2S)-3-methyl-2-{[methyl(pyridin-2-ylmethyl)carbamoyl]amino}butanamido]-1,6-diphenylhexan-2-yl]-3-methyl-2-{[methyl(pyridin-2-ylmethyl)carbamoyl]amino}butanamide] yielded an inhibition constant Ki of 0.004 nM. In other words, the picomolar range.

The compound `CC(C)[C@H](NC(=O)N(C)Cc1ccccn1)C(=O)N[C@@H](Cc1ccccc1)[C@@H](O)[C@H](O)[C@H](Cc1ccccc1)NC(=O)[C@@H](NC(=O)N(C)Cc1ccccn1)C(C)C` [(2S)-N-[(2S,3R,4R,5S)-3,4-dihydroxy-5-[(2S)-3-methyl-2-{[methyl(pyridin-2-ylmethyl)carbamoyl]amino}butanamido]-1,6-diphenylhexan-2-yl]-3-methyl-2-{[methyl(pyridin-2-ylmethyl)carbamoyl]amino}butanamide] yielded a Ki of 0.112 nM.

With `CC(C)[C@H](NC(=O)N(C)Cc1ccccn1)C(=O)N[C@@H](Cc1ccccc1)[C@H](O)[C@@H](O)[C@H](Cc1ccccc1)NC(=O)[C@@H](NC(=O)N(C)Cc1ccccn1)C(C)C` [JMC51852 Inhibitor PP], the affinity corresponds to a Ki of 0.011 nM.

Regarding `CC(C)[C@H](NC(=O)N(C)Cc1ccccn1)C(=O)N[C@@H](Cc1ccccc1)[C@H](O)[C@H](O)[C@H](Cc1ccccc1)NC(=O)[C@@H](NC(=O)N(C)Cc1ccccn1)C(C)C` [(2S)-N-[(2S,3R,4S,5S)-3,4-dihydroxy-5-[(2S)-3-methyl-2-{[methyl(pyridin-2-ylmethyl)carbamoyl]amino}butanamido]-1,6-diphenylhexan-2-yl]-3-methyl-2-{[methyl(pyridin-2-ylmethyl)carbamoyl]amino}butanamide], the affinity, expressed as Ki, was 0.012 nM.
